Experiments:
MMP-1 = target: T1, MMP-1 (Homo sapiens, UniProt P03956); assay: Measurement of MMP-1 inhibitory activity; assay type: biochemical; conditions: MMP-1 (Cosmo Bio), fluorogenic substrate
T1 construct: purchased Cosmo Bio Co
T1 sequence (P03956 100-469): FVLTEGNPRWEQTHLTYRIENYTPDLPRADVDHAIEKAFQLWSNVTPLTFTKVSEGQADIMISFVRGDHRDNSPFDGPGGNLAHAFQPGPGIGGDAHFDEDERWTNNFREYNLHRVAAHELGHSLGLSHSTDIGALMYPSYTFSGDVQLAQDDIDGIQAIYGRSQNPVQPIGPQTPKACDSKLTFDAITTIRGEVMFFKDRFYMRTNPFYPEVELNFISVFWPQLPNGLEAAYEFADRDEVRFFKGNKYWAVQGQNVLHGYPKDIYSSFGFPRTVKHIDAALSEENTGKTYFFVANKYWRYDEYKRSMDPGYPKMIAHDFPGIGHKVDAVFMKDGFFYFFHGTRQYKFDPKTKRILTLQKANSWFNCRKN
Method: Test 2 (Measurement of MMP-1 Inhibitory Activity)
MMP-1 inhibitory activity (IC50 value) was measured in accordance with the above-described measuring method of TACE inhibitory activity by using MMP-1 (product of Cosmo Bio Co.) and, as a substrate, 7-methoxycoumarin-4-yl-acetyl-PLGL-[N^3-(2,4-dinitrophenyl)2,3-diaminopropionyl]-AR—NH2 (product of Peptide Institute Inc.). The fluorescence intensity was measured using POLAR STAR (Ex: 340 nm, Em: 405 nm).

[1] = target: T2, TACE (crude extracted protein from membrane fraction of THP-1 cells) (Homo sapiens, UniProt P78536); assay: In vitro TACE inhibitory activity (fluorogenic peptide substrate); assay type: biochemical; conditions: crude TACE 10 μg/mL, substrate 20 μM, room temperature, at least 4 hours
T2 construct: The supernatant was collected, which was provided for use as a TACE crude extract; endogenous in cells; host or cells: THP-1 cells stimulated with LPS, silica and hydroxyurea; membrane fraction solubilised with 1% Triton X-100
T2 sequence (P78536 215-824): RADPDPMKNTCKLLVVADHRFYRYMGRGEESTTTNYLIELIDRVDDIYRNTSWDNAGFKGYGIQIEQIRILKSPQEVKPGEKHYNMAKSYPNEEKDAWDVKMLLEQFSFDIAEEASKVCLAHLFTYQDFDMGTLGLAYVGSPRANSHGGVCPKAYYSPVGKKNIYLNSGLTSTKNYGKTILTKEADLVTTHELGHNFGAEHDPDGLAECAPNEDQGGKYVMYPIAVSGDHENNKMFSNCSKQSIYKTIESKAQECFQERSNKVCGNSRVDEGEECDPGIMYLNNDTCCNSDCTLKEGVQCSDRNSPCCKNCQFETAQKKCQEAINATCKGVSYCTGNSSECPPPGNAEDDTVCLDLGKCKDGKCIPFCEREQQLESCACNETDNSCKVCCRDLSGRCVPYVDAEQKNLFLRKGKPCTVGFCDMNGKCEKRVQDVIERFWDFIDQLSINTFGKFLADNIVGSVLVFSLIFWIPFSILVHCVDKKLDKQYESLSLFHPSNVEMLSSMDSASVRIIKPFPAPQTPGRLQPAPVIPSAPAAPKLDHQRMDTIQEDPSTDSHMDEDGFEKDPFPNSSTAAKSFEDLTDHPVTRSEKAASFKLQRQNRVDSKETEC
Method: Test 1 (In Vitro TACE Inhibitory Activity)
(1) Crude Extraction of TACE from THP-1 Cell Membrane
To THP-1 cells (cell density: 2×10^6/mL) suspended in RPMI 1640 medium containing 1% FBS were added LPS (E. coli 055:B55, final concentration: 1 pg/mL), silica (0.014 μm, final concentration: 50 μg/mL) and hydroxyurea (final concenration: 2 mM), followed by cultivation at 37° C. for 16 hours under 5%-CO2 conditions. The resulting cells were then washed once with RPMI 1640 medium free of FBS. The cells were suspended in 3 times the pellet volume of Solution A (10 mM sodium phosphate (pH 7.4), 1 mM MgCl2, 30 mM NaCl, 0.02% NaN3, 5 μM PMSF (phenyl methyl sulfonyl fluoride)). The cells were ground by a Polytron homogenizer (5 sec×5 times, ice cooling for 1 to 2 minutes each time). The homogenate solution was stacked over 41% sucrose-Solution A, followed by centrifugation (150,000 g×1 hour). After centrifugation, the intermediate layer was collected and diluted with 4 volumes of Solution A, followed by centrifugation (150,000 g×20 min). A sufficient amount of a solubilizing solution (1%-Triton X-100-A solution) was added (protein concentration: 1 mg/mL) and the mixture was stirred (4° C.×1 hour). Stirring was followed by centrifugation (100,000 g×30 min, 4° C.). The supernatant was collected, which was provided for use as a TACE crude extract.
(2) Measurement of TACE Inhibitory Activity
TACE (crude extracted protein from membrane fraction of THP-1 cells, final concentration: 10 μg/mL), each of test compounds (DMSO final concentration: 1%) shown in Table 1 and an incubate solution (50 mM Tris-HCl (pH 7.4), 5 mM CaCl2, 0.002% NaN3, 0.002% Brij 35) was added to a 96-well black plate. After pre-incubation at room temperature for 30 minutes, a substrate (N-methylanthranilyl-LAQAVRSK(DNP)rr-NH2: product of PEPTIDE INSTITUTE, INC., final concentration: 20 μM) was added, followed by incubation at room temperature for at least 4 hours. The fluorescence intensity was measured using POLAR STAR (Ex: 340 nm, Em: 430 nm) and from it, TACE inhibitory activity (IC50 value) was calculated.

Structure (SMILES) | melting point [°C] | IC50 (MMP-1) [nM] | IC50 [1] [nM]
CN(C)c1cccc2c(S(=O)(=O)N(C)c3cccc(/C(=C\C(=O)NO)c4ccccc4)c3)cccc12 [Compound 74, Z-3-[3-[N-(5-(Dimethylamino)-1-naphthalenesulfonyl)-N-methylamino]phenyl]-3-phenylpropenohydroxamic acid] | 96 to 99 | – | –
COc1ccc(S(=O)(=O)Nc2ccc(Cl)c(/C(=C\C(=O)NO)c3ccccc3)c2)cc1OC [Compound 37, Z-3-[2-Chloro-5-(3,4-dimethoxybenzenesulfonylamino)phenyl]-3-phenylpropenohydroxamic Acid] | 127 to 130 | – | –
COc1ccc(S(=O)(=O)N(C)c2cccc(/C(=C\C(=O)NO)c3ccc[n+]([O-])c3)c2)cc1 [Compound 94, E-3-[3-[N-(4-Methoxybenzenesulfonyl)-N-methylamino]phenyl]-3-(3-pyridyl N-oxide)propenohydroxamic Acid] | – | > 10000 | 13
CN(c1cccc(/C(=C\C(=O)NO)c2ccccc2)c1)S(=O)(=O)c1cccc2cccnc12 [Compound 73, Z-3-[3-[N-(8-Quinolinesulfonyl)-N-methylamino]phenyl]-3-phenylpropenohydroxamic Acid] | – | > 10000 | 29
COc1ccc(S(=O)(=O)Nc2cccc(C(=CC(=O)NO)c3cccc(NS(=O)(=O)c4ccc(OC)c(OC)c4)c3)c2)cc1OC [Compound 44, 3,3-bis[3-(3,4-Dimethoxybenzenesulfonylamino)phenyl]propenohydroxamic Acid] | 132 to 135 | – | –
O=C(C=C(c1cccc(NS(=O)(=O)c2cccc3cccnc23)c1)c1cccc(NS(=O)(=O)c2cccc3cccnc23)c1)NO [Compound 46, 3,3-bis[3-(8-Quinolinesulfonylamino)phenyl]propenohydroxamic Acid] | 152 to 156 | – | –
COc1ccc(S(=O)(=O)Nc2ccc(/C(=C\C(=O)NO)c3ccccc3)cc2)cc1 [Compound 54, Z-3-[4-(4-Methoxybenzenesulfonylamino)phenyl]-3-phenylpropenohydroxamic Acid] | 188 to 191 | – | –
O=C(/C=C(/c1ccccc1)c1cccc(N(CCc2ccccc2)S(=O)(=O)c2ccc3ccccc3c2)c1)NO [Compound 66, Z-3-[3-[N-(2-Naphthalenesulfonyl)-N-(2-phenylethyl)amino]phenyl]-3-phenylpropenohydroxamic Acid] | 127 to 129 | – | –
O=C(/C=C(/c1ccccc1)c1cccc(N(Cc2ccccc2)S(=O)(=O)c2ccc3ccccc3c2)c1)NO [Compound 65, Z-3-[3-[N-(2-Naphthalenesulfonyl)-N-benzylamino]phenyl]-3-phenylpropenohydroxamic Acid] | 88 to 90 | – | –
O=C(C=C(c1cccc(NS(=O)(=O)c2ccc(Br)cc2)c1)c1cccc(NS(=O)(=O)c2ccc(Br)cc2)c1)NO [Compound 40, 3,3-bis [3-(4-Bromobenzenesulfonylamino)phenyl]propenohydroxamic Acid] | 137 to 141 | – | –
COc1ccc(NC(=S)Nc2cccc(/C(=C\C(=O)NO)c3ccccc3)c2)cc1 [Compound 58, Z-3-[3-[3-(4-Methoxyphenyl)thioureido]phenyl]-3-phenylpropenohydroxamic Acid] | 176 to 179 | – | –
COc1ccc(C(=O)Nc2cccc(/C(=C\C(=O)NO)c3ccccc3)c2)cc1 [Compound 53, Z-3-[3-(4-Methoxybenzoylamino)phenyl]-3-phenylpropenohydroxamic Acid] | 134 to 137 | – | –
COc1ccc(NC(=O)Nc2cccc(/C(=C\C(=O)NO)c3ccccc3)c2)cc1 [Compound 57, Z-3-[3-[3-(4-Methoxyphenyl)ureido]phenyl]-3-phenylpropenohydroxamic Acid] | 190 to 192 | – | –
COc1ccc(S(=O)(=O)N(c2cccc(/C(=C\C(=O)NO)c3ccccc3)c2)C(C)C)cc1 [Compound 63, Z-3-[3-[N-(4-Methoxybenzenesulfonyl)-N-isopropylamino]phenyl]-3-phenylpropenohydroxamic Acid] | – | > 10000 | 8.6
COc1ccc(C(=O)Nc2cccc(C(=CC(=O)NO)c3cccc(NC(=O)c4ccc(OC)cc4)c3)c2)cc1 [Compound 39, 3,3-bis[3-(4-Methoxybenzoylamino)phenyl]propenohydroxamic Acid] | 198 to 200 | – | –
O=C(C=C(c1cccc(NS(=O)(=O)c2ccc3ccccc3c2)c1)c1cccc(NS(=O)(=O)c2ccc3ccccc3c2)c1)NO [Compound 45, 3,3-bis[3-(2-Naphthalenesulfonylamino)phenyl]propenohydroxamic Acid] | 128 to 131 | – | –
O=C(/C=C(/c1ccccc1)c1cccc(NS(=O)(=O)N2CCCCC2)c1)NO [Compound 26, Z-3-[3-(1-Piperidinesulfonylamino)phenyl]-3-phenylpropenohydroxamic Acid] | 158 to 159 | – | –
O=C(/C=C(/c1ccccc1)c1cccc(NS(=O)(=O)c2cccc3ccccc23)c1)NO [Compound 27, Z-3-[3-(1-Naphthalenesulfonylamino)phenyl]-3-phenylpropenohydroxamic Acid] | 160 to 163 | – | –
O=C(/C=C(/c1ccccc1)c1cc(NS(=O)(=O)c2ccc3ccccc3c2)ccc1Cl)NO [Compound 36, Z-3-[2-Chloro-5-(2-naphthalenesulfonylamino)phenyl]-3-phenylpropenohydroxamic Acid] | 173 to 175 | – | –
COc1ccc(OC)c(S(=O)(=O)N(C)c2cccc(/C(=C\C(=O)NO)c3ccccc3)c2)c1 [Compound 76, Z-3-[3-[N-(2,5-Dimethoxybenzenesulfonyl)-N-methylamino]phenyl]-3-phenylpropenohydroxamic acid] | 151 to 153 | – | –
O=C(/C=C(/c1ccccc1)c1cccc(N(Cc2cccnc2)S(=O)(=O)c2ccc3ccccc3c2)c1)NO [Compound 67, Z-3-[3-[N-(2-Naphthalenesulfonyl)-N-(3-pyridylmethyl)amino]phenyl]-3-phenylpropenohydroxamic Acid] | 168 to 170 | – | –
O=C(NO)C(F)=C(c1cccc(NS(=O)(=O)c2cccc3cccnc23)c1)c1cccc(NS(=O)(=O)c2cccc3cccnc23)c1 [Compound 49, 2-Fluoro-3,3-bis[3-(8-quinolinesulfonylamino)phenyl]propenohydroxamic Acid] | 150 to 153 | – | –
CCCN(c1cccc(/C(=C\C(=O)NO)c2cccnc2)c1)S(=O)(=O)c1ccc(OC)cc1 [Compound 115, E-3-[3-[N-(4-Methoxybenzenesulfonyl)-N-propylamino]phenyl]-3-(3-pyridyl)propenohydroxamic Acid] | 151 to 153 | – | –
COc1ccc(S(=O)(=O)N(c2cccc(/C(=C/C(=O)NO)c3cccnc3)c2)C(C)C)cc1 [Compound 114, Z-3-[3-[N-(4-Methoxybenzenesulfonyl)-N-isopropylamino]phenyl]-3-(3-pyridyl)propenohydroxamic acid] | 195 to 197 | – | –
CN(C)c1cccc2c(S(=O)(=O)Nc3cccc(/C(=C\C(=O)NO)c4ccccc4)c3)cccc12 [Compound 30, Z-3-[3-[5-(Dimethylamino)-1-naphthalenesulfonylamino)phenyl]-3-phenylpropenohydroxamic Acid] | 123 to 125 | – | –
O=C(/C=C(/c1ccccc1)c1ccc(NS(=O)(=O)c2ccc([N+](=O)[O-])cc2)cc1)NO [Compound 35, Z-3-[4-(4-Nitrobenzenesulfonylamino)phenyl]-3-phenylpropenohydroxamic Acid] | 146 to 148 | – | –

Source: patent US20040029928A1, “Novel propenohydroxamic acid derivatives” (priority 2000, published 2004)
